Measurements taken from article PMC6687188, “Novel lactate dehydrogenase inhibitors with in vivo efficacy against Cryptosporidium parvum” (PLoS Pathogens, 2019).
Non-standard residues stand in square brackets, D forms with d. Residues, ends and D or L forms follow the SMILES beside them. ξ: configuration not given here. *: point of attachment. ξNMe2Val = CC(C)C(C(=O)*)N(C)C; NMeV = CN[CH](C(=O)O)C(C)C; NHBn = c1ccc(CN*)cc1

Molecular target: recombinant CpLDH protein (Cryptosporidium parvum, UniProt Q9GT92, F198L/K295E/R251K)

Row | SMILES | MEAN CpLDH INHIBITION (%)
1 | Oc1[nH]c2ccccc2c1N=Nc1nc(-c2ccc(Br)cc2)cs1 [NSC657456] | -18.36%
2 | COc1cc(/C=C2\S/C(=N/Nc3nc(-c4ccc(Br)cc4)cs3)NC2=O)cc(OC)c1OC [NSC657457] | -150.87%
3 | O=C1/C(=C/c2ccc([N+](=O)[O-])cc2)Sc2scc(-c3cccc([N+](=O)[O-])c3)[n+]21.[Cl-] [NSC657598] | -68.44%
4 | CCCn1c(=O)c2ccccc2[n+]2c(-c3ccc([N+](=O)[O-])cc3)csc12.[Br-] [NSC657603] | -45.82%
5 | Cc1cccc(C)c1NC(=O)C(=O)C(c1ccccc1Cl)S(=O)(=O)Cc1ccccc1Cl (stereo not shown) [NSC657722] | -170.05%
6 | O=[N+]([O-])c1ccc2c(c1)/C(=N/N=C1c3ccccc3Cc3ccccc31)c1cc([N+](=O)[O-])cc([N+](=O)[O-])c1-2 [NSC658139] | -4.51%
7 | O=C1C=C(N2CCNCC2)C(=O)c2c(O)ccc(O)c21 [NSC658144] | -3.51%
8 | CC(=O)c1sc2[n+](c1C)C(=O)/C(=C\c1ccccc1Cl)S2 [NSC658285] | -36.39%
9 | CCOC(=O)c1sc2[n+](c1C)C(=O)/C(=C/c1ccc([N+](=O)[O-])cc1)S2.[Cl-] [NSC658293] | -21.86%
10 | CCn1c(O)c(C=Nc2ccccc2)s/c1=N/Nc1ncc(CC(=O)Nc2ccccc2C)s1 [NSC658350] | -19.59%
11 | CN(C)CCCCN1CCc2c(n(C)c3ccccc23)C1=O.Cl [NSC658388] | -30.45%
12 | CC(=O)N=C1N(/C=C2\C(=O)Oc3ccccc3C2=O)C(=O)/C(=C/c2ccccc2Cl)N1C [NSC658494] | -56.68%
13 | COc1ccc(NC(=O)C(=O)/C=C(\O)c2ccccc2)cc1 [NSC658709] | -17.00%
14 | O=C(CC(O)(C(F)(F)F)C(F)(F)Cl)CC(O)(C(F)(F)F)C(F)(F)Cl (stereo not shown) [NSC659174] | -13.23%
15 | CN=c1sc2c(n1C)C(=O)c1ccccc1C2=O [NSC659501] | -27.66%
16 | COCCOC1=C(Cl)C(=O)c2c(O)ccc(O)c2C1=O [NSC659997] | -9.35%
17 | Cl.O=C1C=CC(=O)c2c(O)c(N3CCN(CCOCCO)CC3)c(Br)c(O)c21 [NSC659999] | -30.12%
18 | Cc1nn(-c2ccccc2)c2c1CC(=O)Nc1ccccc1-2 [NSC662553] | -64.36%
19 | C=C(Cl)C(Cl)(CBr)CCC(Br)C(C)(C)Cl (stereo not shown) [NSC662825] | -7.35%
20 | COc1ccc(NC2=NCCO2)c2c1CCCC2 [NSC663996] | -51.63%
21 | O=C1C(C(O)(C(F)(F)F)C(F)(F)F)CCC1C(O)(C(F)(F)F)C(F)(F)F (stereo not shown) [NSC664181] | -5.59%
22 | CN(NC1=NCCO1)c1ccc2ccccc2c1 [NSC664286] | -26.92%
23 | CC(Cc1ccccc1)NC1=NCCO1 (stereo not shown) [NSC664298] | -116.71%
24 | CC(=O)C(N1CCCCC1)C(O)(C(F)(F)F)C(F)(F)F (stereo not shown) [NSC664327] | -14.71%

Row | SMILES | MEAN CpLDH INHIBITION (%)
25 | O/N=C(/CC(O)(C(F)(F)F)C(F)(F)F)c1cccc(Cl)c1 [NSC664329] | -28.29%
26 | CC1=CC(=O)c2cccc(NC3=NCCO3)c21 [NSC664331] | -15.78%
27 | [N-]=[N+]=NC1=NNC2(C(=O)N1)c1ccccc1-c1ccccc12 [NSC666168] | -17.65%
28 | CCCCCCC1CC(=O)C1(Cl)Cl (stereo not shown) [NSC666526] | -2.48%
29 | CCOC(=O)Cc1cc(=O)oc2cc(O)ccc12 [NSC667235] | -25.51%
30 | CN(C)c1cccc(/C=C(\C#N)c2ccccc2)c1 [NSC667251] | -17.96%
31 | S=C1Nc2cnc3ccccc3c2SC1c1ccccc1 (stereo not shown) [NSC667467] | -21.66%
32 | C=C1CC(Cn2cc(Br)c(=O)[nH]c2=O)(c2ccc(-c3ccccc3)cc2)OC1=O (stereo not shown) [NSC668260] | -9.25%
33 | C=C1CC(COc2cc(=O)oc3ccccc23)(c2ccccc2)OC1=O (stereo not shown) [NSC668270] | -4.80%
34 | CC(C)C(NC(=O)C(C(C)C)N(C)C)C(=O)N(C)C(C(=O)N1CCCC1C(=O)N1CCCC1C(=O)NCc1ccccc1)C(C)C.Cl (stereo not shown) [NSC669356] (ξNMe2Val-V[NMeV]PP-NHBn; configuration not given here) | -120.43%
35 | O=C(ON=C1c2ccccc2C(Br)C(Br)c2ccccc21)c1ccccc1 (stereo not shown) [NSC670140] | -63.78%
36 | CN(C)CCOC1(Cc2ccc(Cl)cc2Cl)CCC(C(C)(C)C)CC1.Cl (stereo not shown) [NSC670224] | -73.95%
37 | Cc1ccc(CC2(OCCN(C)C)CCC(C(C)(C)C)CC2)cc1.O=C(O)/C=C/C(=O)O (stereo not shown) [NSC670225] | -54.38%
38 | CN(C)CCOC1(Cc2ccc(F)cc2)CCC(C(C)(C)C)CC1.O=C(O)/C=C/C(=O)O (stereo not shown) [NSC670226] | -20.67%
39 | Cc1ccc(CC2(OCCN(C)C)CCC(C(C)(C)C)CC2)cc1.O=C(O)/C=C/C(=O)O (stereo not shown) [NSC670229] | -52.64%
40 | CC(=O)c1sc2c(c1OC(=O)c1ccc(Cl)cc1Cl)c(=O)n(-c1ccccc1)c(=S)n2-c1ccccc1 [NSC671136] | -17.97%
41 | COc1ccc(N=C2C(=Nc3ccc(OC)cc3)N(c3ccc(N(C)C)cc3)C(=S)N2c2ccc(OC)cc2)cc1 [NSC671394] | -158.34%
42 | O=[N+]([O-])c1ccc2oc(=Nc3ccccc3)c(Nc3ccccc3)nc2c1 [NSC671424] | -1.46%
43 | N[C@@H](Cc1ccc2oc3cc(=O)c4ccccc4c-3nc2c1)C(=O)O [NSC672425] | -0.60%
44 | CCCCCCCCCCCCCCCC[N+](C)(C)CCl.[Cl-] [NSC672904] | -0.06%
45 | COC(=O)C1CCC(=O)N1C(c1ccc(OC)cc1)c1cc(OC)c(OC)c(OC)c1 (stereo not shown) [NSC673622] | -14.54%
46 | NC(=O)N/N=C1\CC2C3CC4C2C4C13 (stereo not shown) [NSC673912] | -116.36%
47 | Cc1cc(-c2nc3ccccc3s2)ccc1N [NSC674495] | -21.24%
48 | CCCN(CCC)C(=S)Sc1nc(C)nc(N2CCN(c3nc(C)nc(SC(=S)N(CCC)CCC)c3[N+](=O)[O-])CC2)c1[N+](=O)[O-] [NSC675593] | -141.86%

Row | SMILES | MEAN CpLDH INHIBITION (%)
49 | COc1ccccc1[S+]([O-])Nc1ccccc1 (stereo not shown) [NSC676561] | -16.89%
50 | O=C(O)/C=C\C(=O)O.[N-]=[N+]=Nc1ccc2c(c1)Sc1ccccc1N2CCCCN1CCN(Cc2ccc(C(=O)c3ccccc3)cc2)CC1 [NSC676963] | -97.54%
51 | COc1ccc(NC(=O)CC(=O)N2N=C(C)C(N=Nc3ccc(S(=O)(=O)c4ccc(N=NC5C(=O)N(C(=O)CC(=O)Nc6ccc(OC)cc6)N=C5C)cc4)cc3)C2=O)cc1 (stereo not shown) [NSC677392] | -119.10%
52 | COc1ccc(OC)c2nc3c(C(=O)NCCN(C)C)cccc3nc12.Cl [NSC678917] | -41.85%
53 | CN(C)CCNC(=O)c1cccc2[nH]c(-c3ccncc3)nc12.Cl [NSC678932] | -5.91%
54 | COC(=O)c1c[nH]c2c1-c1cc(C(=O)OCc3ccccc3)n(S(=O)(=O)c3ccc(C)cc3)c1C(=O)C2=O [NSC679524] | -184.78%
55 | COC(=O)c1cc(-c2c[nH]cc2C(=O)OCc2ccccc2)cn1S(=O)(=O)c1ccc(C)cc1 [NSC679527] | -27.66%
56 | CC1=C/C(=N\OCC(=O)O)CC(c2ccc(C(C)C)cc2)C1 (stereo not shown) [NSC680506] | -8.88%
57 | Cl.NC1(CCNC(=O)c2ccccc2)CCN(C(=O)c2ccccc2)CC1 [NSC680509] | -41.56%
58 | Cc1cc(N(C)C)ccc1N=Nc1ccc2ncccc2c1 [NSC680516] | -19.55%
59 | N#CC(NCc1cccc(CNC(C#N)c2ccccc2)c1)c1ccccc1 (stereo not shown) [NSC681730] | -12.34%
60 | CCC(C#N)(c1ccccc1)N(CCc1ccccc1)C(=O)c1ccccc1 (stereo not shown) [NSC681741] | -7.66%
61 | N#CC(c1ccccc1)N(CCCCCCN(C(=O)c1ccccc1)C(C#N)c1ccccc1)C(=O)c1ccccc1 (stereo not shown) [NSC681744] | -15.26%
62 | COc1ccc(-c2cc(-c3ccccc3)nc3c2CC(=O)Nc2ccccc2-3)cc1OC [NSC682769] | -0.10%
63 | NC1N=C(c2ccc(Cl)cc2)C2=C(N1)c1ccccc1CC2 (stereo not shown) [NSC682864] | -37.11%
64 | COc1ccc2cc(CN3CCC(C4CCN(Cc5ccc6cc(OC)ccc6c5)CC4)CC3)ccc2c1.Cl [NSC683792] | -73.55%
65 | O=C1Cc2c(-c3ccccc3)cc(-c3cccc(Cl)c3)nc2-c2ccccc2N1 [NSC684480] | -22.58%
66 | CCOC(=O)NC(Nc1ccc(F)cc1)(C(=O)OCC)C(F)(F)F (stereo not shown) [NSC684845] | -7.56%
67 | CC(C)[Si]1(C(C)C)OCC2OC(n3cnc4c(N)ncnc43)C(N)C2O[Si](C(C)C)(C(C)C)O1 (stereo not shown) [NSC687330] | -17.98%
68 | COc1ccc(/C=C2\CCCc3ccccc3C2=O)cc1 [NSC687667] | -11.60%
69 | COc1cc(OC)c2c(C)cc(=O)oc2c1 [NSC688795] | -40.28%
70 | CCCCCC(/C=C/[C@@H]1CC(=O)C[C@H]1O[Si](C)(C)C(C)(C)C)OCOCCOC (stereo partly shown) [NSC689228] | -5.60%
